Results from US8334298B2, “Treatment or prevention of ovarian hyperstimulation syndrome (OHSS) using a dopamine agonist” (Ferring International Center S.A., priority 2005, dated 2012).

What was measured:
[1] = system: women at risk of developing moderate-severe early OHSS; experiment: Prospective, randomized, double blind study of cabergoline in oocyte donors at risk of OHSS (Example 6); type: in vivo
Protocol: Materials and Methods. Example 5 is a prospective, randomized and double blind study of 54 oocyte donors in whom 20-30 follicles greater than 12 mm developed, and from whom more than 20 oocytes were retrieved. Immediately after hCG administration, patients were divided in two groups based on a computer randomization: 1) the study group (n=29) received 0.5 mg oral cabergoline daily for eight days; the control group (n=25) received one tablet of placebo for the same eight days. The patients were monitored every 48 hours from the day of hCG administration (day 0) up through day 8. The presence of ascites was defined as a pocket of peritoneal fluid greater than 9 cm^2, with the patient in litotomy position seen on vaginal ultrasound. Also, regular blood parameters and serum PRL levels were recorded.

OHSS rats = experiment: Previous experiments of the group: cabergoline and vascular permeability in OHSS rats; type: in vivo; conditions: cabergoline 250 μg/kg/day; p<0.05
Protocol: Vehicle control group (quinagolide 0 μg/kg) (n=8). Eight rats were implanted with prolactin placebo pellets, 5 days release, between 10:00 to 11:00 on day 26, just following hCG injection (see General Procedures, above). Six hours after pellet implantation, the rats in this group were orally administered vehicle solution (1:6 alcohol in water mixture) (without quinagolide). They received another oral vehicle administration of vehicle solution 24 hours later. Experimental groups (quinagolide at 0.1, 0.3, 1, 3, 10, 25, 50 μg/kg/day to 7 test groups of rats) (n=8 in each test group). The rats in these groups were implanted with prolactin pellets, 5 days release, between 10:00 to 11:00 on day 26, just following hCG injection (see General Procedures, above). […] In this manner, the desired 0.1, 0.3, 1, 3, 10, 25, 50 μg/kg doses to be assayed were achieved. Twenty four hours later, the rats in this group were administered with another dose of the same amounts of quinagolide. Positive (cabergoline) control group (n=6). These six rats were implanted with prolactin pellets, 5 days release, between 10:00 to 11:00 .m on day 26, just following hCG injection. […] Twenty four hours later, the rats in this group were administered with another dose of the same amount of cabergoline. […] Reconstitution and dilution process to reach appropriate quinagolide doses for oral administration. […]

[2] = system: women with PCOS and hyperprolactinemia; conditions: during ovarian induction with GnRH agonist, FSH and hCG; cited from earlier work

C=CCN1C[C@H](C(=O)N(CCCN(C)C)C(=O)NCC)C[C@@H]2c3cccc4[nH]cc(c34)C[C@H]21 [Cabergoline, cabergoline]
Haemoglobin day 4 ([1]; 0.5 mg oral cabergoline daily for eight days, n=29, mean ± SEM, p 0.006 vs control): 12.7 ± 1.2 g/dL
Haemoglobin day 6 ([1]; 0.5 mg oral cabergoline daily for eight days, n=29, mean ± SEM, p 0.01 vs control): 12.9 ± 1.2 g/dL
Free fluid area day 6 ([1]; 0.5 mg oral cabergoline daily for eight days, n=29, mean ± SEM, p 0.03 vs control): 8.8 ± 1.7 cm2
Hematocrit day 6 ([1]; 0.5 mg oral cabergoline daily for eight days, n=29, mean ± SEM, p 0.04 vs control): 38.9 ± 3.9%
Ascites % ([1]; 0.5 mg oral cabergoline daily for eight days, 7/29 patients, ascites = pocket of peritoneal fluid greater than 9 cm^2, p 0.01 vs control): 24.1 7/29%
Serum PRL levels ([1]; 0.5 mg oral cabergoline daily, days 2, 4, 6 and 8 as compared to controls, p<0.0001): significantly lower
vascular permeability in OHSS rats (OHSS rats): significant decrease in vascular permeability
risk of OHSS [2]: reduce the risk of OHSS
